Measurements published in ChEMBL document CHEMBL1201862, “PubChem BioAssay data set” (2004).
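Grown in 96-well plates, cells were treated for 48 hours with each compound at five concentrations. Insufficient inhibition: endpoint recorded as highest concentration tested. Here, GI50 denotes the concentration required for 50% inhibition of growth.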 Activity calls are given as the source filed them. No stated cut-off is given here; in the data, active = GI50 up to about 1.1 µM and inactive = higher.

What was measured:
Assay in all cases: growth of human tumour cells (NCI), 48 h
[1] = system: NCI-H460
[2] = system: A498
[3] = system: TK-10
[4] = system: MDA-MB-231
[5] = system: SK-OV-3
[6] = system: DU-145
[7] = system: BT-549
[8] = system: LOX IMVI
[9] = system: IGROV-1
[10] = system: 786-0
[11] = system: CCRF-CEM
[12] = system: NCI/ADR-RES
[13] = system: T47D
[14] = system: SNB-75
[15] = system: OVCAR-8
[16] = system: PC-3
[17] = system: HOP-62
[18] = system: SF-295
[19] = system: KM12
[20] = system: SK-MEL-28
[21] = system: SF-268
[22] = system: M14
[23] = system: HT-29
[24] = system: MCF7
[25] = system: HCT-116
[26] = system: HCT-15
[27] = system: UO-31
[28] = system: HOP-92
[29] = system: RXF 393
[30] = system: MDA-MB-435
[31] = system: UACC-257
[32] = system: EKVX
[33] = system: SK-MEL-2
[34] = system: SNB-19
[35] = system: ACHN
[36] = system: MDA-N
[37] = system: SN12C
[38] = system: OVCAR-5
[39] = system: UACC-62
[40] = system: RPMI-8226
[41] = system: U-251
[42] = system: COLO 205
[43] = system: CAKI-1
[44] = system: HL-60
[45] = system: SR
[46] = system: HCC 2998
[47] = system: A549
[48] = system: Malme-3M
[49] = system: K562
[50] = system: SK-MEL-5
[51] = system: SW-620
[52] = system: NCI-H522
[53] = system: SF-539
[54] = system: MOLT-4
[55] = system: NCI-H23
[56] = system: NCI-H226
[57] = system: OVCAR-3
[58] = system: OVCAR-4
[59] = system: Hs-578T

Structure (SMILES): Cc1c(F)c(N)c2c(=O)cc(-c3ccc(NC(=O)[C@@H](N)CCCCN)c(F)c3)oc2c1F
- GI50 [1]: 0.101 µM (active)
- GI50 [2]: 0.0537 µM (active)
- GI50 [3]: 0.134 µM (active)
- GI50 [4]: 13.2 µM (inactive)
- GI50 [5]: 15.1 µM (inactive)
- GI50 [6]: 13.7 µM (inactive)
- GI50 [7]: 24.4 µM (inactive)
- GI50 [8]: 8.83 µM (inactive)
- GI50 [9]: 0.0418 µM (active)
- GI50 [10]: 9.31 µM (inactive)
- GI50 [11]: 3.52 µM (inactive)
- GI50 [12]: 21.4 µM (inactive)
- GI50 [13]: 0.159 µM (active)
- GI50 [14]: 4.68 µM (inactive)
- GI50 [15]: 11 µM (inactive)
- GI50 [16]: 15.3 µM (inactive)
- GI50 [17]: 7.59 µM (inactive)
- GI50 [18]: 15.6 µM (inactive)
- GI50 [19]: 9.33 µM (inactive)
- GI50 [20]: 13.2 µM (inactive)
- GI50 [21]: 11.9 µM (inactive)
- GI50 [22]: 16.4 µM (inactive)
- GI50 [23]: 13.1 µM (inactive)
- GI50 [24]: 0.033 µM (active)
- GI50 [25]: 2.88 µM (inactive)
- GI50 [26]: 11.2 µM
- GI50 [27]: 7.83 µM (inactive)
- GI50 [28]: 18.6 µM (inactive)
- GI50 [29]: 18.2 µM (inactive)
- GI50 [30]: 7.21 µM (inactive)
- GI50 [31]: 0.242 µM (active)
- GI50 [32]: 6.68 µM (inactive)
- GI50 [33]: 21.3 µM (inactive)
- GI50 [34]: 18.4 µM (inactive)
- GI50 [35]: 12.9 µM (inactive)
- GI50 [36]: 7.26 µM (inactive)
- GI50 [37]: 14.9 µM (inactive)

Structure (SMILES): CN1CN(c2ccccc2)C2(CCN(CCC3COc4ccccc4O3)CC2)C1=O (stereo not drawn)
- GI50 [3]: 17.7 µM (inactive)
- GI50 [38]: 18.6 µM (inactive)
- GI50 [4]: 31.9 µM (inactive)
- GI50 [5]: 26.6 µM (inactive)
- GI50 [6]: 14.9 µM (inactive)
- GI50 [39]: 27.5 µM (inactive)
- GI50 [40]: 17.8 µM (inactive)
- GI50 [7]: 18 µM (inactive)
- GI50 [8]: 23 µM (inactive)
- GI50 [41]: 27.5 µM (inactive)
- GI50 [9]: 17.6 µM (inactive)
- GI50 [10]: 36.4 µM (inactive)
- GI50 [42]: 5.6 µM (inactive)
- GI50 [43]: 28.2 µM (inactive)
- GI50 [11]: 17.9 µM (inactive)
- GI50 [12]: 19.7 µM (inactive)
- GI50 [44]: 19.6 µM (inactive)
- GI50 [13]: 4.65 µM (inactive)
- GI50 [45]: 20.9 µM (inactive)
- GI50 [14]: 38.2 µM (inactive)
- GI50 [15]: 32.9 µM (inactive)
- GI50 [16]: 27.8 µM (inactive)
- GI50 [17]: > 10 µM (inactive)
- GI50 [18]: 21.4 µM (inactive)
- GI50 [46]: 8.07 µM (inactive)
- GI50 [47]: 33.1 µM (inactive)
- GI50 [19]: 24.7 µM (inactive)
- GI50 [20]: 19.6 µM (inactive)
- GI50 [21]: 33.8 µM (inactive)
- GI50 [48]: 19.5 µM (inactive)
- GI50 [22]: 15.6 µM (inactive)
- GI50 [23]: 3.88 µM (inactive)
- GI50 [49]: 20.1 µM (inactive)
- GI50 [24]: 5.27 µM (inactive)
- GI50 [25]: 5.92 µM (inactive)
- GI50 [26]: 24.8 µM
- GI50 [27]: 13.5 µM (inactive)
- GI50 [29]: 31.1 µM (inactive)
- GI50 [30]: 24.2 µM (inactive)
- GI50 [31]: 12.5 µM (inactive)
- GI50 [32]: 10.3 µM (inactive)
- GI50 [50]: 12.9 µM (inactive)
- GI50 [51]: 22 µM (inactive)
- GI50 [52]: 13.8 µM (inactive)
- GI50 [53]: 18.8 µM (inactive)
- GI50 [54]: 17 µM (inactive)
- GI50 [55]: 30.4 µM (inactive)
- GI50 [34]: 19.9 µM (inactive)
- GI50 [56]: 27.9 µM (inactive)
- GI50 [35]: 18.1 µM (inactive)
- GI50 [36]: 19.8 µM (inactive)
- GI50 [37]: 27.7 µM (inactive)
- GI50 [57]: 19.9 µM (inactive)

Structure (SMILES): NS(=O)(=O)c1nnc(NC(=O)N(c2ccccc2)c2ccccc2)s1
- GI50 [58]: 27.9 µM (inactive)
- GI50 [3]: 41.2 µM (inactive)
- GI50 [38]: 24.8 µM (inactive)
- GI50 [4]: 70.1 µM (inactive)
- GI50 [5]: 59.6 µM (inactive)
- GI50 [6]: 14.2 µM (inactive)
- GI50 [39]: 21.9 µM (inactive)
- GI50 [40]: 17 µM (inactive)
- GI50 [7]: 16.1 µM (inactive)
- GI50 [8]: 15.9 µM (inactive)
- GI50 [41]: 43.7 µM (inactive)
- GI50 [9]: 17.7 µM (inactive)
- GI50 [10]: 23 µM (inactive)
- GI50 [42]: 37.9 µM (inactive)
- GI50 [43]: 28.6 µM (inactive)
- GI50 [11]: 20.1 µM (inactive)
- GI50 [12]: 18.2 µM (inactive)
- GI50 [44]: 16.3 µM (inactive)
- GI50 [14]: 18.5 µM (inactive)
- GI50 [15]: 19.9 µM (inactive)
- GI50 [16]: 33 µM (inactive)
- GI50 [17]: 27.2 µM (inactive)
- GI50 [18]: 34 µM (inactive)
- GI50 [59]: 25 µM (inactive)
- GI50 [47]: 26.3 µM (inactive)
- GI50 [19]: 21.6 µM (inactive)
- GI50 [20]: 39 µM (inactive)
- GI50 [21]: 30.3 µM (inactive)
- GI50 [48]: 21.2 µM (inactive)
- GI50 [22]: 15.2 µM (inactive)
- GI50 [23]: 27.6 µM (inactive)
- GI50 [49]: 33.5 µM (inactive)
- GI50 [24]: 38.1 µM (inactive)
- GI50 [25]: 29.4 µM (inactive)
- GI50 [26]: 22.5 µM
- GI50 [27]: 24 µM (inactive)
- GI50 [28]: 19.1 µM (inactive)
- GI50 [29]: 18.4 µM (inactive)
- GI50 [30]: 23.4 µM (inactive)
- GI50 [31]: 36.1 µM (inactive)
- GI50 [32]: 24.8 µM (inactive)
- GI50 [50]: 22.7 µM (inactive)
- GI50 [51]: 29.9 µM (inactive)
- GI50 [52]: 16.8 µM (inactive)
- GI50 [33]: 31.3 µM (inactive)
- GI50 [53]: 17.6 µM (inactive)
- GI50 [54]: 21.1 µM (inactive)
- GI50 [55]: 19.1 µM (inactive)
- GI50 [34]: 24.4 µM (inactive)
- GI50 [56]: 41.5 µM (inactive)
- GI50 [36]: 25.4 µM (inactive)
- GI50 [37]: 15.8 µM (inactive)
- GI50 [57]: 19.5 µM (inactive)
